Source: PubChem BioAssay (NCI)
Where “and” joins values, the source holds several entries; their conditions need not be identical. Equal values may be shown once.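 A five-concentration, 48-hour dose response in 96-well plates underlies each endpoint, interpolated linearly between surrounding concentrations. At the GI50, growth is halved. At the TGI there is no net growth.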

Experiments:
Experiment in all cases: NCI anticancer screen, dose series, 48 h
MDA-MB-435 = tested on: MDA-MB-435
RXF 393 renal = tested on: RXF 393 renal
IGROV1 ovarian = tested on: IGROV1 ovarian
U251 CNS = tested on: U251 CNS
PC-3 prostate = tested on: PC-3 prostate
HS 578T breast = tested on: HS 578T breast
NCI-H522 lung = tested on: NCI-H522 lung
BT-549 breast = tested on: BT-549 breast
LOX IMVI melanoma = tested on: LOX IMVI melanoma
TK-10 renal = tested on: TK-10 renal

SMILES | GI50 (MDA-MB-435) | TGI (MDA-MB-435) | GI50 (RXF 393 renal) | TGI (RXF 393 renal) | GI50 (IGROV1 ovarian) | TGI (IGROV1 ovarian) [µM] | GI50 (U251 CNS) | TGI (U251 CNS) | GI50 (PC-3 prostate) | TGI (PC-3 prostate) | GI50 (HS 578T breast) | TGI (HS 578T breast) | GI50 (NCI-H522 lung) [µM] | TGI (NCI-H522 lung) | GI50 (BT-549 breast) | TGI (BT-549 breast) | GI50 (LOX IMVI melanoma) | TGI (LOX IMVI melanoma) | GI50 (TK-10 renal) | TGI (TK-10 renal)
CCCn1c(N)c(C(=O)CNc2ccc(I)cc2)c(=O)[nH]c1=O | 6.01 µM | > 100 µM | 21.5 µM | > 100 µM | 18 µM | > 100 | 0.761 µM | > 48.9 µM | 5.44 µM | > 100 µM | 17.4 µM | > 100 µM | 16 | > 100 µM | > 64.4 µM | > 100 µM | 0.653 µM | > 100 µM | 16.7 µM | > 100 µM
O=C(Nc1cc(-c2cccnc2)nc(NCCCN2CCOCC2)n1)c1cc(Br)cc(C(F)(F)F)c1 | 1.66 µM | 3.15 µM | 1.8 µM | 3.61 µM | 4.67 µM | 19.5 | 2.05 µM | 4.3 µM | 4.03 µM | 15.7 µM | 2.71 µM | 8.51 µM | 1.95 | 5.31 µM | 3.27 µM | 15 µM | 1.62 µM | 3.06 µM | 5.07 µM | 18.1 µM
CCCCCCNC(=O)Oc1ccc(/C(=C(\C)c2ccccc2)c2ccc(OCCN(CC)CC)cc2)cc1 | 3.57 µM | 10.1 µM | 2.35 µM | 8.16 µM | 3.11 µM | 9.82 | 2.41 µM | 8.15 µM | 2.81 µM | 9.21 µM | 2.92 µM | 11.7 µM | 3.48 | 10.6 µM | 6.05 µM | 12.5 µM | 1.1 µM | 2.96 µM | 6.74 µM | 13.5 µM
O=C(O)C(=O)CBr | > 70.4 µM and 18 µM | > 100 µM and 32.7 µM | 64 µM and 17 µM | > 100 µM and 31 µM | 33.5 µM and 62.1 µM | > 100 | > 100 µM and 21.6 µM | > 100 µM and 42.9 µM | > 51.6 µM and 19.5 µM | > 81.7 µM and 37.1 µM | > 100 µM and 29.2 µM | > 100 µM and 72.4 µM | 2.22 | > 31.9 µM and 4.66 µM | > 47.6 µM and 20 µM | > 77.9 µM and 35.2 µM | > 44.4 µM and 17.3 µM | > 63.1 µM and 31.8 µM | > 39.7 µM and 11.4 µM | > 55.3 µM and 24.6 µM
COc1cc(/C=N\O)nc(-c2ccccn2)c1 | – | > 100 µM | – | > 100 µM | – | 13.2 | – | > 100 µM | – | > 100 µM | – | > 100 µM | – | 56.2 µM | – | > 100 µM | – | > 100 µM | – | > 100 µM
COc1c(N2CCN(Cn3c(O)c(N=NC(=O)c4ccncc4)c4cc(F)ccc43)C(C)C2)c(F)cc2c(=O)c(C(=O)O)cn(C3CC3)c12 (stereo not given) | > 50 µM | > 50 µM | 8.44 µM | 20.6 µM | 42.1 µM | > 50 | 14.7 µM | > 50 µM | > 50 µM | > 50 µM | 0.294 µM | 13.8 µM | > 50 | > 50 µM | 37.5 µM | > 50 µM | 24.1 µM | > 50 µM | 12.5 µM | 37.2 µM
